From patent US20260234211A1, “POLYPEPTIDE HAVING MODIFIED STRUCTURE AND USE THEREOF” (Guangdong Raynovent Biotech Co., Ltd., priority 2023, published 2026)
Like-named read-outs stand apart in the source and are kept apart here. One block for each compound: values may come before it. Numbered stars: 1 amine (or outer) side, 2 acyl side, 3 side chain; on linkers, the order of the positions; unused ones are H or OH. Bridge positions count the residues as written; N and C are the ends. Square brackets hold non-standard residues; d marks the D form. Peptide text beside a SMILES is read from it. X1 = O=C(O)CCCCCCCCCCCCCCCCCCC(=O)N[C@@H](CCC(=O)NCCOCCOCC(=O)NCCCC[C@H](N[*:2])C(=O)[*:1])C(=O)O; αMeL = CC(C)C[C@](C)(N)C(=O)O; Aib = CC(C)(N)C(=O)O

What was measured:
GLP-1R = target: T1, GLP-1R (Homo sapiens, UniProt P43220); assay: In vitro GLP-1R agonistic activity test (cAMP, HEK293 cell line); type: cell-based
T1 construct: host or cells: HEK293
Experimental: (§1) The cell lines were constructed by Pharmaron Inc. See details in the table below.
(§2) The test compounds were diluted at a 5-fold dilution factor in 10 points, starting from an initial concentration of 200 nM.
(§3) 1) The cell lines were cultured respectively in complete medium at 37° C. and 5% CO2.
(§4) 1) Eu-cAMP tracer was freeze-thawed and diluted 50 fold with detection buffer; and Ulight-anti-cAMP was freeze-thawed and diluted 150 fold with detection buffer.
(§5) 3) 10 μL of Eu-cAMP tracer was added and then 10 μL of Uligh-anti-cAMP was added into experimental wells respectively.
(§6) 4) The reaction plate was centrifuged at 200 g at room temperature for 30 s and left for stand at 25° C. for 1 h.

GCGR = target: T2, GCGR (Homo sapiens, UniProt P47871); assay: In vitro GCGR agonistic activity test (cAMP, HEK293 cell line); type: cell-based
T2 construct: host or cells: HEK293
Experimental: as §1, §2, §3
2) After digestion with TrypLE, the cells were re-suspended in experimental buffer respectively, and inoculated in a CulturPlate-384 cell culture plate at a density of 2000 cells/well and at a volume of 15 μL/well.
as §4
2) 5 μL of the test compounds were added respectively into experimental wells of the CulturPlate-384 cell culture plate, which was centrifuged at 200 g for 30 s, and left for stand at 37° C. for 30 min.
as §5, §6
5) Envision 2105 was used to collect data, with excitation light at 340 nm and emission light at 665 nm and 615 nm.

[1] = Metabolic stability in human kidney S9; type: in vitro ADME; settings: human, s9
Experimental: The metabolic stability of the compounds in human kidney was evaluated to determine whether the drugs would be degraded by metabolic enzymes in the kidney to affect the efficacies and pharmacokinetics. 1. Relevant solutions were formulated. 2. a) With cofactors (NADPH & UDPGA): NADPH and UDPGA were added during the incubation. […] H2O was added into the culture solution. The final concentration of KS9 Fractions was 1 mg/mL. The mixture was pre-heated at 37° C. for 10 min. […] In this study, 7-hydroxy-coumarin and Raloxifene were used as the positive control. The final concentration of the positive control compounds was 0.2 μM, and the final concentration of the test compound was 1 μM. The culture solution was incubated in water bath at 37° C. 4. At 0.5, 5, 15, 30 and 60 min, volume aliquots were taken from the reaction solution and the reaction was stopped by adding acetonitrile. The samples were centrifuged for 30 min. The supernatant was taken and mixed with ultrapure water for subsequent LC-MS/MS analysis. 5. Data analysis: All calculation was conducted using Microsoft Excel. Peak areas were determined and slope values were calculated based on the extracted ion chromatograms.

[2] = Pharmacokinetic properties in Cynomolgus macaques; settings: cynomolgus monkey, in vivo, male cynomolgus macaques, plasma
Experimental: To test the pharmacokinetic profiles of the compounds in Cynomolgus macaques.
Non-juvenile male cynomolgus macaques were used for experiment, 3 cynomolgus macaques for each compound. Whole blood was collected at time points of 1 h, 2 h, 4 h, 8 h, 16 h, 24 h, 48 h, 72 h, 120 h, 168 h and 240 h after administration, to prepare plasma. The drug concentration was analyzed by LC-MS/MS method, and the pharmacokinetic parameters were calculated using Phoenix WinNonlin software.

[3] = cAMP, HEK293 cells expressing GLP-1R, read-out: GLP-1 EC50
[4] = cAMP, HEK293 cells expressing GCGR, read-out: GCG EC50

T2 sequence (P47871 26-477, species assumed): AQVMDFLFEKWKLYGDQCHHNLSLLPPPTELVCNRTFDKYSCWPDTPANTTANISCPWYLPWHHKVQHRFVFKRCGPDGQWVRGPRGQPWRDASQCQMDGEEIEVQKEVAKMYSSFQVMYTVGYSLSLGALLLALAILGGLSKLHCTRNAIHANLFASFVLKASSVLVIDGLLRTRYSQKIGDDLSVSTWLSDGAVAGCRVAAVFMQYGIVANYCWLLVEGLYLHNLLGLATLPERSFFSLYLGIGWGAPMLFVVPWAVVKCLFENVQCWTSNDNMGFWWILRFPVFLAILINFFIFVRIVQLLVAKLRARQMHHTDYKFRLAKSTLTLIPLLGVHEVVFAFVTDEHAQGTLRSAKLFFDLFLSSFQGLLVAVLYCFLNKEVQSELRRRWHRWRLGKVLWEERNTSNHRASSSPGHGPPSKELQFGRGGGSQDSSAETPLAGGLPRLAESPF
T1 sequence (P43220 24-463, species assumed): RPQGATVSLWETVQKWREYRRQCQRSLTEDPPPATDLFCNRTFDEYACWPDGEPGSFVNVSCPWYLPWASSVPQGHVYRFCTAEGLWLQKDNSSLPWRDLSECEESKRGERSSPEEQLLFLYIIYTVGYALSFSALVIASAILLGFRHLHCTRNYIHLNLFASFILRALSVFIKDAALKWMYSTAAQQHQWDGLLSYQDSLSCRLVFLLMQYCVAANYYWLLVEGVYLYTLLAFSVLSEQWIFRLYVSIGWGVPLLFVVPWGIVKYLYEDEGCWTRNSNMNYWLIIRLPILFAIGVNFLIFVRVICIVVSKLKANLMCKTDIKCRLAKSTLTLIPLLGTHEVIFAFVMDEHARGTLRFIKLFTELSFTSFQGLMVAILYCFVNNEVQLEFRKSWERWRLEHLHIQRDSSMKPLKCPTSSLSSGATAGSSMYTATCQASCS

EC50 (GLP-1R; [3]): 7 pM
EC50 (GCGR; [4]): 25 pM
Compound: CC[C@H](C)[C@H](NC(=O)[C@H](Cc1ccccc1)NC(=O)[C@H](C)NC(=O)C(C)(C)NC(=O)[C@H](CCC(N)=O)NC(=O)[C@H](C)NC(=O)[C@@H]1CCCCNC(=O)CN(C(=O)COCCOCCNC(=O)CC[C@H](NC(=O)CCCCCCCCCCCCCCCCCCC(=O)O)C(=O)O)CC(=O)NCCCC[C@H](NC(=O)[C@](C)(CC(C)C)NC(=O)[C@@H](NC(=O)[C@H](CO)NC(=O)[C@H](Cc2ccc(O)cc2)NC(=O)[C@H](CC(=O)O)NC(=O)[C@H](CO)NC(=O)[C@@H](NC(=O)[C@H](Cc2ccccc2)NC(=O)[C@@H](NC(=O)CNC(=O)[C@H](CCC(N)=O)NC(=O)C(C)(C)NC(=O)[C@@H](N)Cc2ccc(O)cc2)[C@@H](C)O)[C@@H](C)O)[C@@H](C)CC)C(=O)N[C@@H](CC(=O)O)C(=O)N[C@@H](CCCCN)C(=O)N1)C(=O)N[C@@H](CCC(N)=O)C(=O)N[C@@H](Cc1ccc(O)cc1)C(=O)N[C@@H](CC(C)C)C(=O)N[C@@H](CC(C)C)C(=O)N[C@@H](CCC(=O)O)C(=O)NCC(=O)NCC(=O)N1CCC[C@H]1C(=O)N[C@@H](CO)C(=O)N[C@@H](CO)C(=O)NCC(=O)N[C@@H](C)C(=O)N1CCC[C@H]1C(=O)N1CCC[C@H]1C(=O)N1CCC[C@H]1C(=O)N[C@@H](CO)C(N)=O [Example 42, YAibQGT FTSDY SIα- MeL^1KD K^1KAQAib AFIQY LLEGG PSSGA PPPS-NH2 (SEQ ID NO: 39)]

Compound: CC[C@H](C)[C@H](NC(=O)[C@H](Cc1ccccc1)NC(=O)[C@@H]1CCC(=O)N[C@@H](CCCCNC(=O)COCCOCCNC(=O)CC[C@H](NC(=O)CCCCCCCCCCCCCCCCCCC(=O)O)C(=O)O)C(=O)NCCCC[C@H](NC(=O)[C@H](CCCCN)NC(=O)[C@H](CC(=O)O)NC(=O)[C@H](CC(C)C)NC(=O)[C@](C)(CC(C)C)NC(=O)[C@@H](NC(=O)[C@H](CO)NC(=O)[C@H](Cc2ccc(O)cc2)NC(=O)[C@H](CC(=O)O)NC(=O)[C@H](CO)NC(=O)[C@@H](NC(=O)[C@H](Cc2ccccc2)NC(=O)[C@@H](NC(=O)CNC(=O)[C@H](CCC(N)=O)NC(=O)C(C)(C)NC(=O)[C@@H](N)Cc2ccc(O)cc2)[C@@H](C)O)[C@@H](C)O)[C@@H](C)CC)C(=O)N[C@@H](C)C(=O)N[C@@H](CCC(N)=O)C(=O)NC(C)(C)C(=O)N1)C(=O)N[C@@H](CCC(=O)O)C(=O)N[C@@H](Cc1ccc(O)cc1)C(=O)N[C@@H](CC(C)C)C(=O)N[C@@H](CC(C)C)C(=O)N[C@@H](CCC(=O)O)C(=O)NCC(=O)NCC(=O)N1CCC[C@H]1C(=O)N[C@@H](CO)C(=O)N[C@@H](CO)C(=O)NCC(=O)N[C@@H](C)C(=O)N1CCC[C@H]1C(=O)N1CCC[C@H]1C(=O)N1CCC[C@H]1C(=O)N[C@@H](CO)C(N)=O [Example 10, YAibQGT FTSDY SIα- MeLLD K^1KAQAib ^1EFIEY LLEGG PSSGA PPPS-NH2 (SEQ ID NO: 16)] (H-Y[Aib]QGTFTSDYSI[αMeL]LDKKAQ[Aib]EFIEYLLEGGPSSGAPPPS-NH2; linker 17-21 via X1 (inferred); N-terminus assumed)
EC50 (GLP-1R; [3]): 9 pM
half-life at 1 μM [1]: > 3.08 h
microsomal CLint at 1 μM [1]: < 3.75 µL/min/mg

EC50 (GLP-1R; [3]): 1 pM
EC50 (GCGR; [4]): 25 pM
Compound: CC[C@H](C)[C@H](NC(=O)[C@H](Cc1ccccc1)NC(=O)[C@H](C)NC(=O)C(C)(C)NC(=O)[C@H](CCC(N)=O)NC(=O)[C@H](C)NC(=O)[C@@H]1CCCCNC(=O)CN(C(=O)COCCOCCNC(=O)CC[C@H](NC(=O)CCCCCCCCCCCCCCCCCCC(=O)O)C(=O)O)CC(=O)NCCCC[C@H](NC(=O)[C@](C)(CC(C)C)NC(=O)[C@@H](NC(=O)[C@H](CO)NC(=O)[C@H](Cc2ccc(O)cc2)NC(=O)[C@H](CC(=O)O)NC(=O)[C@H](CO)NC(=O)[C@@H](NC(=O)[C@](C)(Cc2ccccc2)NC(=O)[C@@H](NC(=O)CNC(=O)[C@H](CCC(N)=O)NC(=O)C(C)(C)NC(=O)[C@@H](N)Cc2ccc(O)cc2)[C@@H](C)O)[C@@H](C)O)[C@@H](C)CC)C(=O)N[C@@H](CC(=O)O)C(=O)N[C@@H](CCCCN)C(=O)N1)C(=O)N[C@@H](CCC(=O)O)C(=O)N[C@@H](Cc1ccc(O)cc1)C(=O)N[C@@H](CC(C)C)C(=O)N[C@@H](CC(C)C)C(=O)N[C@@H](CCCCN)C(=O)NCC(=O)NCC(=O)N1CCC[C@H]1C(=O)N[C@@H](CO)C(=O)N[C@@H](CO)C(=O)NCC(=O)N[C@@H](C)C(=O)N1CCC[C@H]1C(=O)N1CCC[C@H]1C(=O)N1CCC[C@H]1C(=O)N[C@@H](CO)C(N)=O [Example 51, YAibQGT α-MeFTSDY SIα- MeL^1KD K^1KAQAib AFIEY LLKGG PSSGA PPPS-NH2 (SEQ ID NO: 43)]

Compound: CC[C@H](C)[C@H](NC(=O)[C@H](Cc1ccccc1)NC(=O)[C@H](C)NC(=O)C(C)(C)NC(=O)[C@H](CCC(N)=O)NC(=O)[C@H](C)NC(=O)[C@@H]1CCCCNC(=O)CN(C(=O)COCCOCCNC(=O)[C@@H](N)CCCCNC(=O)CC[C@H](NC(=O)CCCCCCCCCCCCCCCCCCC(=O)O)C(=O)O)CC(=O)NCCCC[C@H](NC(=O)[C@](C)(CC(C)C)NC(=O)[C@@H](NC(=O)[C@H](CO)NC(=O)[C@H](Cc2ccc(O)cc2)NC(=O)[C@H](CC(=O)O)NC(=O)[C@H](CO)NC(=O)[C@@H](NC(=O)[C@H](Cc2ccccc2)NC(=O)[C@@H](NC(=O)CNC(=O)[C@H](CCC(N)=O)NC(=O)C(C)(C)NC(=O)[C@@H](N)Cc2ccc(O)cc2)[C@@H](C)O)[C@@H](C)O)[C@@H](C)CC)C(=O)N[C@@H](CC(=O)O)C(=O)N[C@@H](CCCCN)C(=O)N1)C(=O)N[C@@H](CCC(=O)O)C(=O)N[C@@H](Cc1ccc(O)cc1)C(=O)N[C@@H](CC(C)C)C(=O)N[C@@H](CC(C)C)C(=O)N[C@@H](CCC(=O)O)C(=O)NCC(=O)NCC(=O)N1CCC[C@H]1C(=O)N[C@@H](CO)C(=O)N[C@@H](CO)C(=O)NCC(=O)N[C@@H](C)C(=O)N1CCC[C@H]1C(=O)N1CCC[C@H]1C(=O)N1CCC[C@H]1C(=O)N[C@@H](CO)C(N)=O [Example 52, YAibQGT FTSDY SIα- MeL^1KD K^1KAQAib AFIEY LLEGG PSSGA PPPS-NH2 (SEQ ID NO: 24)]
AUC(0-t) ([2]; read-out: AUC0-240 h): 5.23 µM·h
AUC(0-inf) ([2]; read-out: AUCINF): 6.61 µM·h
Cmax ([2]; read-out: Cmax): 36.2 nM
half-life ([2]; read-out: T1/2 (converted)): 97.8 h
Tmax ([2]; read-out: Tmax): 29.3 h
EC50 (GLP-1R): 3 pM
EC50 (GCGR): 25 pM
